pEC50: −log10 of the molar value. Bounds are passed on as bounds.

For the assay, the system named is PKC mediated IL-2 production. Briefly: IL-2 ELISA, human primary T cell, anti CD3+CD28+. The assay is classed as cell-based. The note with it: Homo sapiens, T-cell, 24 h, human primary T cells stimulated with αCD3 and αCD28, 24 hours. The essentials:
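IL-2 was quantified by ELISA in 24 h supernatants from primary human T cells given a 1 h compound pre-treatment at 37° C. These cells had been expanded from blood mononuclear cells on αCD3/αCD28 with IL-2, and the IL-2 was removed by washing. Stimulation used plate-bound αCD3 ([…]) plus αCD28 (5 μg/ml); the counter assay used PMA (0.5 ng/ml) with ionomycin (0.1 uM) instead.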
Background: ELISA stands for enzyme-linked immunosorbent assay.
Regarding `CC1(C)C[C@H](Nc2nc(Nc3cc(-n4nnnc4C4CC4)c(O)cc3F)ncc2F)C[C@@H]2CCCN21` [Compound 256, 4-(4-((7R,8aS)-octahydro-5,5-dimethylindolizin-7-ylamino)-5-fluoropyrimidin-2-ylamino)-2-(5-cyclopropyl-1H-tetrazol-1-yl)-5-fluorophenol], the pEC50 is 5.00 to 6.00.

Take `CC(C)Oc1cc(F)c(Nc2ncc(F)c(N[C@@H]3C[C@@H]4CCCN4C(C)(C)C3)n2)cc1-n1nnnc1C1CC1` [Compound 257, N2-(5-(5-cyclopropyl-1H-tetrazol-1-yl)-2-fluoro-4-isopropoxyphenyl)-5-fluoro-N4-((7R,8aS)-octahydro-5,5-dimethylindolizin-7-yl)pyrimidine-2,4-diamine]: the pEC50 is less than 5.00.

On to `CNc1nnnn1-c1cc(Nc2ncc(F)c(N[C@@H]3C[C@@H]4CCCN4C(C)(C)C3)n2)c(F)cc1OC1COC1` [Compound 258, 5-fluoro-N2-(2-fluoro-5-(5-(methylamino)-1H-tetrazol-1-yl)-4-(oxetan-3-yloxy)phenyl)-N4-((7R,8aS)-octahydro-5,5-dimethylindolizin-7-yl)pyrimidine-2,4-diamine], for which the pEC50 is 5.00 to 6.00.

On to `CC1(C)C[C@H](Nc2nc(Nc3cccc(-n4nnnc4S)c3)ncc2F)C[C@@H]2CCCN21` [Compound 259, 1-(3-(4-((7R,8aS)-octahydro-5,5-dimethylindolizin-7-ylamino)-5-fluoropyrimidin-2-ylamino)phenyl)-1H-tetrazole-5-thiol], for which the pEC50 was 5.00 to 6.00.

As for `CC1(C)C[C@H](Nc2nc(Nc3cccc(-n4nn[nH]c4=O)c3)ncc2F)C[C@@H]2CCCN21` [Compound 260, 1-(3-(4-((7R,8aS)-octahydro-5,5-dimethylindolizin-7-ylamino)-5-fluoropyrimidin-2-ylamino)phenyl)-1H-tetrazol-5(4H)-one], the pEC50 was less than 5.00.

As for `CSc1nnnn1-c1cccc(Nc2ncc(F)c(N[C@@H]3C[C@@H]4CCCN4C(C)(C)C3)n2)c1` [Compound 261, 5-fluoro-N4-((7R,8aS)-octahydro-5,5-dimethylindolizin-7-yl)-N2-(3-(5-(methylthio)-1H-tetrazol-1-yl)phenyl)pyrimidine-2,4-diamine], the pEC50 is more than 7.00.

Compound `CC1(C)C[C@H](Nc2nc(Nc3cccc(-n4nnnc4SC4COC4)c3)ncc2F)C[C@@H]2CCCN21` [Compound 262, 5-fluoro-N4-((7R,8aS)-octahydro-5,5-dimethylindolizin-7-yl)-N2-(3-(5-(oxetan-3-ylthio)-1H-tetrazol-1-yl)phenyl)pyrimidine-2,4-diamine] had a pEC50 of more than 7.00.

Take `CC1(C)C[C@H](Nc2nc(Nc3cccc(-n4nnnc4SC(CO)CO)c3)ncc2F)C[C@@H]2CCCN21` [Compound 263, 2-(1-(3-(4-((7R,8aS)-octahydro-5,5-dimethylindolizin-7-ylamino)-5-fluoropyrimidin-2-ylamino)phenyl)-1H-tetrazol-5-ylthio)propane-1,3-diol]: the pEC50 was 6.30 to 7.00.

As for `CC1(C)C[C@H](Nc2nc(Nc3cccc(-n4nnnc4SC(CN)CO)c3)ncc2F)C[C@@H]2CCCN21` (stereo partly drawn) [Compound 264, 2-(1-(3-(4-((7R,8aS)-octahydro-5,5-dimethylindolizin-7-ylamino)-5-fluoropyrimidin-2-ylamino)phenyl)-1H-tetrazol-5-ylthio)-3-aminopropan-1-ol], the pEC50 was 5.00 to 6.00.

Compound `CC1(C)C[C@H](Nc2nc(Nc3cccc(-n4nnn(C5COC5)c4=O)c3)ncc2F)C[C@@H]2CCCN21` [Compound 265, 1-(3-(4-((7R,8aS)-octahydro-5,5-dimethylindolizin-7-ylamino)-5-fluoropyrimidin-2-ylamino)phenyl)-4-(oxetan-3-yl)-1H-tetrazol-5(4H)-one] gave a pEC50 of 6.30 to 7.00.

`CC1(C)C[C@H](Nc2nc(Nc3cccc(-n4nnnc4SCCO)c3)ncc2F)C[C@@H]2CCCN21` [Compound 266, 2-(1-(3-(4-((7R,8aS)-octahydro-5,5-dimethylindolizin-7-ylamino)-5-fluoropyrimidin-2-ylamino)phenyl)-1H-tetrazol-5-ylthio)ethanol] showed a pEC50 of more than 7.00.

Regarding `CC1(C)C[C@H](Nc2nc(Nc3cccc(-n4nnn(CCO)c4=O)c3)ncc2F)C[C@@H]2CCCN21` [Compound 267, 1-(3-(4-((7R,8aS)-octahydro-5,5-dimethylindolizin-7-ylamino)-5-fluoropyrimidin-2-ylamino)phenyl)-4-(2-hydroxyethyl)-1H-tetrazol-5(4H)-one], the pEC50 is 6.30 to 7.00.

Consider `CC1(C)Oc2ccc(Nc3ncc(F)c(N[C@@H]4C[C@@H]5CCCN5C(C)(C)C4)n3)cc2-n2c1nn(CCO)c2=O` [Compound 268, 5-fluoro-N2-(1H-2,4-dihydron-2-(2-hydroxyethyl)-4,4-dimethyl-[1,2,4]triazolo[3,4-c][1,4]benzoxazin-1-one-8-yl)-N4-((7R,8aS)-octahydro-5,5-dimethylindolizin-7-yl)pyrimidine-2,4-diamine], for which the negative-log EC50 (pEC50) was 5.00 to 6.00.

Regarding `CC1(C)C[C@H](Nc2nc(Nc3cccc(-n4nnnc4S(C)(=O)=O)c3)ncc2F)C[C@@H]2CCCN21` [Compound 269, 5-fluoro-N4-((7R,8aS)-octahydro-5,5-dimethylindolizin-7-yl)-N2-(3-(5-(methylsulfonyl)-1H-tetrazol-1-yl)phenyl)pyrimidine-2,4-diamine], the pEC50 was 6.00 to 6.30.

The compound `C[S+]([O-])c1nnnn1-c1cccc(Nc2ncc(F)c(N[C@@H]3C[C@@H]4CCCN4C(C)(C)C3)n2)c1` (stereo partly drawn) [Compound 270, 5-fluoro-N4-((7R,8aS)-octahydro-5,5-dimethylindolizin-7-yl)-N2-(3-(5-(methylsulfinyl)-1H-tetrazol-1-yl)phenyl)pyrimidine-2,4-diamine] showed a pEC50 of 6.00 to 6.30.

`Cc1ccc(Nc2ncc(F)c(N[C@@H]3C[C@@H]4CCCN4C(C)(C)C3)n2)cc1-n1nn[nH]c1=O` [Compound 272, 1-(5-(4-((7R,8aS)-octahydro-5,5-dimethylindolizin-7-ylamino)-5-fluoropyrimidin-2-ylamino)-2-methylphenyl)-1H-tetrazol-5(4H)-one] showed a pEC50 of less than 5.00.

The compound `Cc1ccc(Nc2ncc(F)c(N[C@@H]3C[C@@H]4CCCN4C(C)(C)C3)n2)cc1-n1nnn(C)c1=O` [Compound 273, 1-(5-(4-((7R,8aS)-octahydro-5,5-dimethylindolizin-7-ylamino)-5-fluoropyrimidin-2-ylamino)-2-methylphenyl)-4-methyl-1H-tetrazol-5(4H)-one] showed a pEC50 of more than 7.00.

In the case of `Cc1ccc(Nc2ncc(F)c(N[C@@H]3C[C@@H]4CCCN4C(C)(C)C3)n2)cc1-n1nnn(CCO)c1=O` [Compound 275, 1-(5-(4-((7R,8aS)-octahydro-5,5-dimethylindolizin-7-ylamino)-5-fluoropyrimidin-2-ylamino)-2-methylphenyl)-4-(2-hydroxyethyl)-1H-tetrazol-5(4H)-one], the pEC50 is 6.30 to 7.00.

`Cc1ccc(Nc2ncc(F)c(N[C@@H]3C[C@@H]4CCCN4C(C)(C)C3)n2)cc1-n1nnn(C2COC2)c1=O` [Compound 276, 1-(5-(4-((7R,8aS)-octahydro-5,5-dimethylindolizin-7-ylamino)-5-fluoropyrimidin-2-ylamino)-2-methylphenyl)-4-(oxetan-3-yl)-1H-tetrazol-5(4H)-one] had a pEC50 of more than 7.00.

On to `COc1ccc(Nc2ncc(F)c(N[C@@H]3C[C@@H]4CCCN4C(C)(C)C3)n2)cc1-n1nn[nH]c1=O` [Compound 277, 1-(5-(4-((7R,8aS)-octahydro-5,5-dimethylindolizin-7-ylamino)-5-fluoropyrimidin-2-ylamino)-2-methoxyphenyl)-1H-tetrazol-5(4H)-one], for which the pEC50 was less than 5.00.

Compound `COc1ccc(Nc2ncc(F)c(N[C@@H]3C[C@@H]4CCCN4C(C)(C)C3)n2)cc1-n1nnn(C)c1=O` [Compound 278, 1-(5-(4-((7R,8aS)-octahydro-5,5-dimethylindolizin-7-ylamino)-5-fluoropyrimidin-2-ylamino)-2-methoxyphenyl)-4-methyl-1H-tetrazol-5(4H)-one] gave a pEC50 of more than 7.00.

The compound `COc1ccc(Nc2ncc(F)c(N[C@@H]3C[C@@H]4CCCN4C(C)(C)C3)n2)cc1-n1nnn(CCO)c1=O` [Compound 280, 1-(5-(4-((7R,8aS)-octahydro-5,5-dimethylindolizin-7-ylamino)-5-fluoropyrimidin-2-ylamino)-2-methoxyphenyl)-4-(2-hydroxyethyl)-1H-tetrazol-5(4H)-one] gave a pEC50 of 6.00 to 6.30.

The compound `CSc1nnnn1-c1cc(Nc2ncc(F)c(N[C@@H]3C[C@@H]4CCCN4C(C)(C)C3)n2)ccc1C` [Compound 281, 5-fluoro-N4-((7R,8aS)-octahydro-5,5-dimethylindolizin-7-yl)-N2-(4-methyl-3-(5-(methylthio)-1H-tetrazol-1-yl)phenyl)pyrimidine-2,4-diamine] showed a pEC50 of more than 7.00.

`Cc1ccc(Nc2ncc(F)c(N[C@@H]3C[C@@H]4CCCN4C(C)(C)C3)n2)cc1-n1nnnc1SCCO` [Compound 282, 2-(1-(5-(4-((7R,8aS)-octahydro-5,5-dimethylindolizin-7-ylamino)-5-fluoropyrimidin-2-ylamino)-2-methylphenyl)-1H-tetrazol-5-ylthio)ethanol]: the pEC50 was more than 7.00.

`Cn1nc2n(c1=O)-c1cc(Nc3ncc(F)c(N[C@@H]4C[C@@H]5CCCN5C(C)(C)C4)n3)ccc1OC21CCOCC1` [Compound 283, 5-fluoro-N2-(1H-2,4-dihydron-spiro(2H-1,4-benzoxazine-4,4′-[4H]pyran)-2-methyl-[1,2,4]triazolo[3,4-c][1,4]benzoxazin-1-one-8-yl)-N4-((7R,8aS)-octahydro-5,5-dimethylindolizin-7-yl)pyrimidine-2,4-diamine]: the pEC50 is 6.30 to 7.00.

Compound `COc1ccc(Nc2ncc(F)c(N[C@@H]3C[C@@H]4CCCN4C(C)(C)C3)n2)cc1-n1nnnc1OC1COC1` [Compound 284, 5-fluoro-N4-((7R,8aS)-octahydro-5,5-dimethylindolizin-7-yl)-N2-(4-methoxy-3-(5-(oxetan-3-yloxy)-1H-tetrazol-1-yl)phenyl)pyrimidine-2,4-diamine] had a pEC50 of more than 7.00.

The pEC50 is the negative decadic logarithm of the EC50, by convention in mol/L.

Values taken from patent US9682976B2, “Protein kinase C inhibitors and uses thereof” (Rigel Pharmaceuticals, Inc., priority 2012, dated 2017).
